In patent US20130150376A1, “Novel Sultam Compounds” (PFIZER INC., priority 2010, published 2013):
Structures can show the parent of a compound that is named as a salt. Where two headings read alike, the source gives them in different places.

Biological target: T1, BACE1 enzyme (soluble, truncated BACE enzyme, BACE1deltaTM96His) (Homo sapiens, UniProt P56817)
T1 construct: soluble, truncated BACE enzyme (BACE1deltaTM96His); His; made in house
Assay: BACE1 Fluorescent Polarization (FP) Assay
Type: biochemical
Details: geometric mean of 2-4 IC50 determinations unless footnoted (^2: 5-6 determinations; ^4: single determination)
In short: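 Soluble truncated His-tagged BACE1 (BACE1deltaTM96His, from CHO-K1 conditioned media; 0.1 nM final) with biotinylated Oregon green peptide substrate (150 nM final), in 100 mM sodium acetate pH 4.5, 0.001% Tween-20. Compounds in ½ log series from 100 μM top; 3 h at 37° C. Stopped with streptavidin; cleavage read as Δ mP fluorescence polarization (Ex485/Em530).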

[1] = 11-point curve, read-out: BACE activity, 11-point curve, IC50
[2] = 8-point curve, read-out: BACE activity, 8-point curve, IC50

T1 sequence (P56817 46-457): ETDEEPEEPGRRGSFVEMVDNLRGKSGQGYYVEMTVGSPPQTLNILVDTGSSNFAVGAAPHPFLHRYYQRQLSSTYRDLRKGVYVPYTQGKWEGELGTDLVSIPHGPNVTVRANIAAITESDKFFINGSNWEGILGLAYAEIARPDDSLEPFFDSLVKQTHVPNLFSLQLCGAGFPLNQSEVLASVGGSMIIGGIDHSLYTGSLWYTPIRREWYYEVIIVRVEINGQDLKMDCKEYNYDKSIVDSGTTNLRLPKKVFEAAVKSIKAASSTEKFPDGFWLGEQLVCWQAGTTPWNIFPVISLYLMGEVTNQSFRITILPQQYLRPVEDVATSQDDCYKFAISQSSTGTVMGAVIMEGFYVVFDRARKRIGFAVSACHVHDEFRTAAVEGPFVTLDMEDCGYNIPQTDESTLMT

Row | Compound | IC50 [1] [nM] | IC50 [2] [nM]
1 | CC(C)Oc1cccc(CN2CC[C@@]3(C[C@@H]2C)C(O)CS(=O)(=O)N3c2cccc(F)c2)c1 (stereo partly drawn) [Example 65, (5R,7S)-1-(3-fluorophenyl)-8-(3-isopropoxybenzyl)-7-methyl-2-thia-1,8-diazaspiro[4.5]decan-4-ol 2,2-dioxide] | 3160 | –
2 | CC(C)Oc1cc(CN2CC[C@]3(C=CS(=O)(=O)N3c3ccc(F)c(F)c3)C[C@@H]2C)ccc1O [Example 67, 4-{[(5R,7S)-1-(3,4-difluorophenyl)-7-methyl-2,2-dioxido-2-thia-1,8-diazaspiro[4.5]dec-3-en-8-yl]methyl}-2-isopropoxyphenol] | 429 | 59.3
3 | CC(C)Oc1cccc(CN2CC[C@]3(C=CS(=O)(=O)N3c3ccc(F)c(F)c3)C[C@@H]2C)c1 [Example 68, (5R,7S)-1-(3,4-difluorophenyl)-8-(3-isopropoxybenzyl)-7-methyl-2-thia-1,8-diazaspiro[4.5]dec-3-ene 2,2-dioxide, hydrochloride salt] | 5790 | 1770
4 | C[C@H]1C[C@@]2(C=CS(=O)(=O)N2c2cccc(F)c2)CCN1Cc1ncoc1C1CCCO1 (stereo partly drawn) [Example 70, (5R,7S)-1-(3-fluorophenyl)-7-methyl-8-{[5-(tetrahydrofuran-2-yl)-1,3-oxazol-4-yl]methyl}-2-thia-1,8-diazaspiro[4.5]dec-3-ene 2,2-dioxide] | 6810 | 2560
5 | C[C@H]1C[C@@]2(C=CS(=O)(=O)N2c2cccc(F)c2)CCN1Cc1ncoc1C1CCOC1 (stereo partly drawn) [Example 71, (5R,7S)-1-(3-fluorophenyl)-7-methyl-8-{[5-(tetrahydrofuran-3-yl)-1,3-oxazol-4-yl]methyl}-2-thia-1,8-diazaspiro[4.5]dec-3-ene 2,2-dioxide] | 2490 | 1290
6 | Cc1csnc1-c1cc(CN2CC[C@]3(C=CS(=O)(=O)N3c3cccc(F)c3)C[C@@H]2C)ccc1O [Example 72, 4-{[(5R,7S)-1-(3-fluorophenyl)-7-methyl-2,2-dioxido-2-thia-1,8-diazaspiro[4.5]dec-3-en-8-yl]methyl}-2-(4-methyl-1,2-thiazol-3-yl)phenol, trifluoroacetic acid salt] | 24.3 | 0.97
7 | Cc1scnc1-c1cc(CN2CC[C@]3(C=CS(=O)(=O)N3c3cccc(F)c3)C[C@@H]2C)ccc1O [Example 73, 4-{[(5R,7S)-1-(3-fluorophenyl)-7-methyl-2,2-dioxido-2-thia-1,8-diazaspiro[4.5]dec-3-en-8-yl]methyl}-2-(5-methyl-1,3-thiazol-4-yl)phenol, ammonium sail] | 44.5 | 2.44
8 | Cc1cccnc1-c1cc(CN2CC[C@]3(C=CS(=O)(=O)N3c3cccc(F)c3)C[C@@H]2C)ccc1O [Example 74, 4-{[(5R,7S)-1-(3-fluorophenyl)-7-methyl-2,2-dioxido-2-thia-1,8-diazaspiro[4.5]dec-3-en-8-yl]methyl}-2-(3-methylpyridin-2-yl)phenol] | 115 | 13.8
9 | C[C@H]1C[C@@]2(C=CS(=O)(=O)N2c2cccc(F)c2)CCN1Cc1ccc(O)c(C2CCC2)c1 [Example 75, 2-cyclobutyl-4-{[(5R,7S)-1-(3-fluorophenyl)-7-methyl-2,2-dioxido-2-thia-1,8-diazaspiro[4.5]dec-3-en-8-yl]methyl}phenol] | 41.8 | –
10 | Cc1ncccc1-c1ocnc1CN1CC[C@]2(C=CS(=O)(=O)N2c2cccc(F)c2)C[C@@H]1C [Example 76, (5R,7S)-1-(3-fluorophenyl)-7-methyl-8-{[5-(2-methylpyridin-3-yl)-1,3-oxazol-4-yl]methyl}-2-thia-1,8-diazaspiro[4.5]dec-3-ene 2,2-dioxide] | 2970 | 705
11 | Cc1cccnc1-c1cccc(CN2CC[C@]3(C=CS(=O)(=O)N3c3cccc(F)c3)C[C@@H]2C)c1 [Example 77, (5R,7S)-1-(3-fluorophenyl)-7-methyl-8-[3-(3-methylpyridin-2-yl)benzyl]-2-thia-1,8-diazaspiro[4.5]dec-3-ene 2,2-dioxide, trifluoroacetic acid salt] | 927 | –
12 | Cc1cccnc1-c1cc(CN2CC[C@]3(C=CS(=O)(=O)N3c3cccc(F)c3)C[C@@H]2C)ccc1F [Example 78, (5R,7S)-8-[4-fluoro-3-(3-methylpyridin-2-yl)benzyl]-1-(3-fluorophenyl)-7-methyl-thia-1,8-diazaspiro[4.5]dec-3-ene 2,2-dioxide] | 5650 | –
13 | C[C@H]1C[C@@]2(C=CS(=O)(=O)N2c2cccc(F)c2)CCN1Cc1ncoc1C1CCCOC1 (stereo partly drawn) [Example 79, (5R,7S)-1-(3-fluorophenyl)-7-methyl-8-{[5-(tetrahydro-2H-pyran-3-yl)-1,3-oxazol-4-yl]methyl}-2-thia-1,8-diazaspiro[4.5]dec-3-ene 2,2-dioxide] | 519 | 189
14 | CC(C)Oc1cccc(CN2CC[C@@]3(C[C@@H]2C)C(=O)CS(=O)(=O)N3c2cccc(F)c2)c1 [Example 81, (5R,7S)-1-(3-fluorophenyl)-8-(3-isopropoxybenzyl)-7-methyl-2-thia-1,8-diazaspiro[4.5]decan-4-one 2,2-dioxide] | 5720 | –
15 | Cc1csnc1-c1cc(CN2CC[C@@]3(C[C@@H]2C)C(=O)CS(=O)(=O)N3c2cccc(F)c2)ccc1O [Example 82, (5R,7S)-1-(3-fluorophenyl)-8-[4-hydroxy-3-(4-methylisothiazol-3-yl)benzyl]-7-methyl-2-thia-1,8-diazaspiro[4.5]decan-4-one 2,2-dioxide] | 20.9 | –
16 | Cc1scnc1-c1cc(CN2CC[C@@]3(C[C@@H]2C)C(=O)CS(=O)(=O)N3c2cccc(F)c2)ccc1O [Example 83, (5R,7S)-1-(3-fluorophenyl)-8-[4-hydroxy-3-(5-methyl-1,3-thiazol-4-yl)benzyl]-7-methyl-2-thia-1,8-diazaspiro[4.5]decan-4-one 2,2-dioxide] | 240 | –
17 | C[C@H]1C[C@]2(CCN1Cc1ccc(O)c(C3CCC3)c1)C(=O)CS(=O)(=O)N2c1cccc(F)c1 [Example 84, (5R,7S)-8-(3-cyclobutyl-4-hydroxybenzyl)-1-(3-fluorophenyl)-7-methyl-2-thia-1,8-diazaspiro[4.5]decan-4-one 2,2-dioxide] | 337 | –
18 | Cc1cccnc1-c1cc(CN2CC[C@@]3(C[C@@H]2C)C(=O)CS(=O)(=O)N3c2cccc(F)c2)ccc1O [Example 85, (5R,7S)-1-(3-fluorophenyl)-8-[4-hydroxy-3-(3-methylpyridin-2-yl)benzyl]-7-methyl-2-thia-1,8-diazaspiro[4.5]decan-4-one 2,2-dioxide] | 715 | –
19 | COC1=CS(=O)(=O)N(c2cccc(F)c2)[C@@]12CCN(Cc1ccc(O)c(-c3nscc3C)c1)[C@@H](C)C2 [Example 86, 4-{[(5R,7S)-1-(3-fluorophenyl)-4-methoxy-7-methyl-2,2-dioxido-2-thia-1,8-diazaspiro[4.5]dec-3-en-8-yl]methyl}-2-(4-methylisothiazol-3-yl)phenol, ammonium salt] | 117 | –
20 | C[C@H]1C[C@]2(CCN1Cc1ccc(O)c(C3CCC3)c1)CCS(=O)(=O)N2c1cnccn1 [Example 87, 2-cyclobutyl-4-{[(5R,7S)-7-methyl-2,2-dioxido-1-(pyrazin-2-yl)-2-thia-1,8-diazaspiro[4.5]dec-8-yl]methyl}phenol] | 2670 | –
21 | Cc1csnc1-c1cc(CN2CC[C@]3(CCS(=O)(=O)N3c3cnccn3)C[C@@H]2C)ccc1O [Example 88, 4-{[(5R,7S)-7-methyl-2,2-dioxido-1-(pyrazin-2-yl)-2-thia-1,8-diazaspiro[4.5]dec-8-yl]methyl}-2-(4-methylisothiazol-3-yl)phenol] | 457 | –
